Reference: US8957238B2, “Process for preparing malathion for pharmaceutical use” (priority 2005, dated 2015)

Test: Storage stability of dry pharmaceutical grade malathion, HPLC (Example 18)
Assay type: physicochemical
Protocol: Purity was determined using a high performance liquid chromatography (HPLC) instrument with a variable wavelength detector.
Isomalathion content was determined using a high performance liquid chromatography (HPLC) instrument with a variable wavelength detector.
Four (4) samples of Dry Pharmaceutical Grade Malathion from Example 16, each weighing about 3-3.5 grams, were placed in separate clear glass bottles closed by a cap coated with polytetrafluoroethylene (PTFE). Each bottle was then inserted into a separate black polyethylene (PE) bag, which was tightly closed with a strip fastener. Each bag was then placed in a separate carton box.
The four (4) samples were stored for three (3) months under the following conditions: • Sample One: 40° C.±2° C. and 75%±5% relative humidity, • Sample Two: 30° C.±2° C. and 60%±5% relative humidity, • Sample Three: 25° C.±2° C. and 60%±5% relative humidity, and • Sample Four: 5° C.±3° C. and ambient relative humidity
The purity of each sample was determined after storage for one (1), two (2), and three (3) months using HPLC as set forth above (See Methodology and Protocols: End-of-Process Determination of Assay, Purity, and Impurities Other Than Isomalathion, End-of-Process Determination of Isomalathion).

[1] = Storage at 5° C. ± 3° C. and ambient relative humidity
[2] = Storage at 25° C. ± 2° C. and 60% ± 5% relative humidity
[3] = Storage at 30° C. ± 2° C. and 60% ± 5% relative humidity
[4] = Storage at 40° C. ± 2° C. and 75% ± 5% relative humidity

Structure (SMILES): CCOC(=O)CC(SP(=S)(OC)OC)C(=O)OCC (stereo not shown) [[(dimethoxyphosphinothioyl)thio]butanedioic acid diethyl ester]
- Diethyl fumarate Quantity After 1 Month [1]: <0.01 (LOD) % w/w
- Diethyl fumarate Quantity After 2 Months [1]: <0.01 (LOD) % w/w
- Diethyl fumarate Quantity After 3 Months [1]: <0.01 (LOD) % w/w
- Dimethyl malathion Quantity After 1 Month [1]: <0.02 (LOD) % w/w
- Dimethyl malathion Quantity After 2 Months [1]: <0.02 (LOD) % w/w
- Dimethyl malathion Quantity After 3 Months [1]: <0.02 (LOD) % w/w
- Isomalathion Quantity After 1 Month [1]: <0.02 (LOD) % w/w
- Isomalathion Quantity After 2 Months [1]: <0.03 (LOQ) % w/w
- Isomalathion Quantity After 3 Months [1]: <0.03 (LOQ) % w/w
- Malaoxon Quantity After 1 Month [1]: <0.05 (LOD) % w/w
- Malaoxon Quantity After 2 Months [1]: <0.05 (LOD) % w/w
- Malaoxon Quantity After 3 Months [1]: <0.05 (LOD) % w/w
- MeOOSPO Quantity After 1 Month [1]: <0.04 (LOD) % w/w
- MeOOSPO Quantity After 2 Months [1]: <0.04 (LOD) % w/w
- MeOOSPO Quantity After 3 Months [1]: <0.04 (LOD) % w/w
- MeOOSPS Quantity After 1 Month [1]: 0.1 % w/w
- MeOOSPS Quantity After 2 Months [1]: 0.1 % w/w
- MeOOSPS Quantity After 3 Months [1]: 0.1 % w/w
- MeOSSPO Quantity After 1 Month [1]: <0.02 (LOD) % w/w
- MeOSSPO Quantity After 2 Months [1]: <0.02 (LOD) % w/w
- MeOSSPO Quantity After 3 Months [1]: <0.02 (LOD) % w/w
- Methyl malathion Quantity After 1 Month [1]: 0.05 % w/w
- Methyl malathion Quantity After 2 Months [1]: 0.06 % w/w
- Methyl malathion Quantity After 3 Months [1]: 0.06 % w/w
- O,O-Me, Et Malathion analog Quantity After 1 Month [1]: 0.07 % w/w
- O,O-Me, Et Malathion analog Quantity After 2 Months [1]: 0.07 % w/w
- O,O-Me, Et Malathion analog Quantity After 3 Months [1]: 0.07 % w/w
- Tetraethyl dithiodisuccinate Quantity After 1 Month [1]: 0.06 % w/w
- Tetraethyl dithiodisuccinate Quantity After 2 Months [1]: 0.06 % w/w
- Tetraethyl dithiodisuccinate Quantity After 3 Months [1]: 0.06 % w/w
- Unknown (RRT = 0.38) Quantity After 1 Month [1]: 0.04 % w/w
- Unknown (RRT = 0.38) Quantity After 2 Months [1]: 0.04 % w/w
- Unknown (RRT = 0.38) Quantity After 3 Months [1]: 0.04 % w/w
- Diethyl fumarate Quantity After 1 Month [2]: <0.01 (LOD) % w/w
- Diethyl fumarate Quantity After 2 Months [2]: <0.01 (LOD) % w/w
- Diethyl fumarate Quantity After 3 Months [2]: <0.01 (LOD) % w/w
- Dimethyl malathion Quantity After 1 Month [2]: <0.02 (LOD) % w/w
- Dimethyl malathion Quantity After 2 Months [2]: <0.02 (LOD) % w/w
- Dimethyl malathion Quantity After 3 Months [2]: <0.02 (LOD) % w/w
- Isomalathion Quantity After 1 Month [2]: <0.03 (LOQ) % w/w
- Isomalathion Quantity After 2 Months [2]: <0.02 (LOD) % w/w
- Isomalathion Quantity After 3 Months [2]: 0.04 % w/w
- Malaoxon Quantity After 1 Month [2]: <0.05 (LOD) % w/w
- Malaoxon Quantity After 2 Months [2]: <0.05 (LOD) % w/w
- Malaoxon Quantity After 3 Months [2]: <0.05 (LOD) % w/w
- MeOOSPO Quantity After 1 Month [2]: <0.04 (LOD) % w/w
- MeOOSPO Quantity After 2 Months [2]: <0.04 (LOD) % w/w
- MeOOSPO Quantity After 3 Months [2]: <0.04 (LOD) % w/w
- MeOOSPS Quantity After 1 Month [2]: 0.1 % w/w
- MeOOSPS Quantity After 2 Months [2]: 0.1 % w/w
- MeOOSPS Quantity After 3 Months [2]: 0.1 % w/w
- MeOSSPO Quantity After 1 Month [2]: <0.02 (LOD) % w/w
- MeOSSPO Quantity After 2 Months [2]: <0.02 (LOD) % w/w
- MeOSSPO Quantity After 3 Months [2]: <0.02 (LOD) % w/w
- Methyl malathion Quantity After 1 Month [2]: 0.05 % w/w
- Methyl malathion Quantity After 2 Months [2]: 0.05 % w/w
- Methyl malathion Quantity After 3 Months [2]: 0.06 % w/w
- O,O-Me, Et Malathion analog Quantity After 1 Month [2]: 0.08 % w/w
- O,O-Me, Et Malathion analog Quantity After 2 Months [2]: 0.07 % w/w
- O,O-Me, Et Malathion analog Quantity After 3 Months [2]: 0.07 % w/w
- Tetraethyl dithiodisuccinate Quantity After 1 Month [2]: 0.06 % w/w
- Tetraethyl dithiodisuccinate Quantity After 2 Months [2]: 0.06 % w/w
- Tetraethyl dithiodisuccinate Quantity After 3 Months [2]: 0.06 % w/w
- Unknown (RRT = 0.27) Quantity After 1 Month [2]: <0.02 (LOD) % w/w
- Unknown (RRT = 0.27) Quantity After 2 Months [2]: <0.02 (LOD) % w/w
- Unknown (RRT = 0.27) Quantity After 3 Months [2]: 0.06 % w/w
- Unknown (RRT = 0.38) Quantity After 1 Month [2]: 0.04 % w/w
- Unknown (RRT = 0.38) Quantity After 2 Months [2]: 0.04 % w/w
- Unknown (RRT = 0.38) Quantity After 3 Months [2]: 0.04 % w/w
- Diethyl fumarate Quantity After 1 Month [3]: <0.01 (LOD) % w/w
- Diethyl fumarate Quantity After 2 Months [3]: <0.01 (LOD) % w/w
- Diethyl fumarate Quantity After 3 Months [3]: <0.01 (LOD) % w/w
- Dimethyl malathion Quantity After 1 Month [3]: <0.02 (LOD) % w/w
- Dimethyl malathion Quantity After 2 Months [3]: <0.02 (LOD) % w/w
- Dimethyl malathion Quantity After 3 Months [3]: <0.02 (LOD) % w/w
- Isomalathion Quantity After 1 Month [3]: 0.03 % w/w
- Isomalathion Quantity After 2 Months [3]: 0.04 % w/w
- Isomalathion Quantity After 3 Months [3]: 0.06 % w/w
- Malaoxon Quantity After 1 Month [3]: <0.05 (LOD) % w/w
- Malaoxon Quantity After 2 Months [3]: <0.05 (LOD) % w/w
- Malaoxon Quantity After 3 Months [3]: <0.05 (LOD) % w/w
- MeOOSPO Quantity After 1 Month [3]: <0.04 (LOD) % w/w
- MeOOSPO Quantity After 2 Months [3]: <0.04 (LOD) % w/w
- MeOOSPO Quantity After 3 Months [3]: <0.04 (LOD) % w/w
- MeOOSPS Quantity After 1 Month [3]: 0.1 % w/w
- MeOOSPS Quantity After 2 Months [3]: 0.1 % w/w
- MeOOSPS Quantity After 3 Months [3]: 0.1 % w/w
- MeOSSPO Quantity After 1 Month [3]: <0.02 (LOD) % w/w
- MeOSSPO Quantity After 2 Months [3]: <0.02 (LOD) % w/w
- MeOSSPO Quantity After 3 Months [3]: <0.02 (LOD) % w/w
- Methyl malathion Quantity After 1 Month [3]: 0.05 % w/w
- Methyl malathion Quantity After 2 Months [3]: 0.06 % w/w
- Methyl malathion Quantity After 3 Months [3]: 0.06 % w/w
- O,O-Me, Et Malathion analog Quantity After 1 Month [3]: 0.08 % w/w
- O,O-Me, Et Malathion analog Quantity After 2 Months [3]: 0.08 % w/w
- O,O-Me, Et Malathion analog Quantity After 3 Months [3]: 0.07 % w/w
- Tetraethyl dithiodisuccinate Quantity After 1 Month [3]: 0.06 % w/w
- Tetraethyl dithiodisuccinate Quantity After 2 Months [3]: 0.05 % w/w
- Tetraethyl dithiodisuccinate Quantity After 3 Months [3]: 0.06 % w/w
- Unknown (RRT = 0.06) Quantity After 1 Month [3]: <0.02 (LOD) % w/w
- Unknown (RRT = 0.06) Quantity After 2 Months [3]: <0.02 (LOD) % w/w
- Unknown (RRT = 0.06) Quantity After 3 Months [3]: 0.04 % w/w
- Unknown (RRT = 0.27) Quantity After 1 Month [3]: <0.02 (LOD) % w/w
- Unknown (RRT = 0.27) Quantity After 2 Months [3]: 0.07 % w/w
- Unknown (RRT = 0.27) Quantity After 3 Months [3]: 0.15 % w/w
- Unknown (RRT = 0.38) Quantity After 1 Month [3]: 0.04 % w/w
- Unknown (RRT = 0.38) Quantity After 2 Months [3]: 0.04 % w/w
- Unknown (RRT = 0.38) Quantity After 3 Months [3]: 0.04 % w/w
- Diethyl fumarate Quantity After 1 Month [4]: <0.01 (LOD) % w/w
- Diethyl fumarate Quantity After 2 Months [4]: <0.01 (LOD) % w/w
- Diethyl fumarate Quantity After 3 Months [4]: <0.02 (LOQ) % w/w
- Dimethyl malathion Quantity After 1 Month [4]: <0.02 (LOD) % w/w
- Dimethyl malathion Quantity After 2 Months [4]: <0.02 (LOD) % w/w
- Dimethyl malathion Quantity After 3 Months [4]: <0.02 (LOD) % w/w
- Isomalathion Quantity After 1 Month [4]: 0.06 % w/w
- Isomalathion Quantity After 2 Months [4]: 0.1 % w/w
- Isomalathion Quantity After 3 Months [4]: 0.1 % w/w
- Malaoxon Quantity After 1 Month [4]: <0.05 (LOD) % w/w
- Malaoxon Quantity After 2 Months [4]: <0.05 (LOD) % w/w
- Malaoxon Quantity After 3 Months [4]: <0.05 (LOD) % w/w
- MeOOSPO Quantity After 1 Month [4]: <0.04 (LOD) % w/w
- MeOOSPO Quantity After 2 Months [4]: <0.04 (LOD) % w/w
- MeOOSPO Quantity After 3 Months [4]: 0.05 % w/w
- MeOOSPS Quantity After 1 Month [4]: 0.1 % w/w
- MeOOSPS Quantity After 2 Months [4]: 0.2 % w/w
- MeOOSPS Quantity After 3 Months [4]: 0.2 % w/w
- MeOSSPO Quantity After 1 Month [4]: <0.02 (LOD) % w/w
- MeOSSPO Quantity After 2 Months [4]: <0.02 (LOD) % w/w
- MeOSSPO Quantity After 3 Months [4]: <0.02 (LOD) % w/w
- Methyl malathion Quantity After 1 Month [4]: 0.06 % w/w
- Methyl malathion Quantity After 2 Months [4]: 0.06 % w/w
- Methyl malathion Quantity After 3 Months [4]: 0.06 % w/w
- O,O-Me, Et Malathion analog Quantity After 1 Month [4]: 0.08 % w/w
- O,O-Me, Et Malathion analog Quantity After 2 Months [4]: 0.07 % w/w
- O,O-Me, Et Malathion analog Quantity After 3 Months [4]: 0.07 % w/w
- Tetraethyl dithiodisuccinate Quantity After 1 Month [4]: 0.06 % w/w
- Tetraethyl dithiodisuccinate Quantity After 2 Months [4]: 0.05 % w/w
- Tetraethyl dithiodisuccinate Quantity After 3 Months [4]: 0.07 % w/w
- Unknown (RRT = 0.06) Quantity After 1 Month [4]: <0.02 (LOD) % w/w
- Unknown (RRT = 0.06) Quantity After 2 Months [4]: <0.02 (LOD) % w/w
- Unknown (RRT = 0.06) Quantity After 3 Months [4]: 0.04 % w/w
- Unknown (RRT = 0.25) Quantity After 1 Month [4]: <0.02 (LOD) % w/w
- Unknown (RRT = 0.25) Quantity After 2 Months [4]: 0.06 % w/w
- Unknown (RRT = 0.25) Quantity After 3 Months [4]: 0.12 % w/w
- Unknown (RRT = 0.27) Quantity After 1 Month [4]: 0.10 % w/w
- Unknown (RRT = 0.27) Quantity After 2 Months [4]: 0.38 % w/w
- Unknown (RRT = 0.27) Quantity After 3 Months [4]: 0.76 % w/w
- Unknown (RRT = 0.38) Quantity After 1 Month [4]: 0.04 % w/w
- Unknown (RRT = 0.38) Quantity After 2 Months [4]: 0.04 % w/w
- Unknown (RRT = 0.38) Quantity After 3 Months [4]: 0.04 % w/w
- Storage stability (conclusion in words) (three (3) months at 5, 25, 30 and 40° C. conditions): storage stable
